The text below walks through data of patent US20220259593A1, “CONTROL OF MAMMALIAN GENE DOSAGE USING CRISPR” (The Regents of the University of California, priority 2019, published 2022).

The series deals with K562 CRISPRi cells. As to the kind of experiment: Perturb-seq pooled growth measurement (sgRNA counts, growth phenotype γ, relative activity). The conditions noted are these: sequencing read counts; for Perturb-seq pooled growth sgRNA counts, d5: 5 days of growth (day seven after transduction); for Perturb-seq pooled growth sgRNA counts, d10: 10 days of growth (day twelve after transduction); for Perturb-seq pooled growth sgRNA counts, T0: T0 = day two after transduction. In kind it is cell-based, human. The essentials:
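sgRNA abundance was sequenced from genomic DNA of the same transduced population sampled on days two, seven and twelve. Phenotype γ compares normalized day seven and twelve counts with day two. Day-seven values (five days of growth) define relative sgRNA activity.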

Consider “MTOR_+_11322547.23-P1P2_06: sgRNA targeting MTOR, GGGCAGGGGGGCTGAAGCGG, SEQ ID NO: 149 (listed as DNA, chemistry not fully specified)”, for which the “Perturb-seq pooled growth sgRNA counts, d5” value was determined as 3358; the “Perturb-seq pooled growth sgRNA counts, d10” value is reported as 3174; the “Perturb-seq pooled growth sgRNA counts, T0” value is 4142.
For “MTOR_+_11322547.23-P1P2_07: sgRNA targeting MTOR, GGGCAGGGGGTCTGAAGCGG, SEQ ID NO: 147 (listed as DNA, chemistry not fully specified)” the same measures were 3183, 1899 and 6761.
“MTOR_+_11322547.23-P1P2_10: sgRNA targeting MTOR, GGGCAGGGGGCCTGAAGCAG, SEQ ID NO: 150 (listed as DNA, chemistry not fully specified)”: the “Perturb-seq pooled growth sgRNA counts, d5” value is reported as 7332; the “Perturb-seq pooled growth sgRNA counts, d10” value was determined as 7827; the “Perturb-seq pooled growth sgRNA counts, T0” value came out at 7076.
For “POLR1D_+_28196016.23-P1_00: sgRNA targeting POLR1D, GGGAAGCAAGGACCGACCGA, SEQ ID NO: 11 (listed as DNA, chemistry not fully specified)”, in that order: 3429, 1496 and 11671.
In the case of “POLR1D_+_28196016.23-P1_01: sgRNA targeting POLR1D, GGGAAGCCAGGACCGACCGA, SEQ ID NO: 76 (listed as DNA, chemistry not fully specified)”, the “Perturb-seq pooled growth sgRNA counts, d5” value turned out to be 4460; the “Perturb-seq pooled growth sgRNA counts, d10” value came to 2528; the “Perturb-seq pooled growth sgRNA counts, T0” value was 12679.
For “POLR1D_+_28196016.23-P1_03: sgRNA targeting POLR1D, GGTAAGCAAGGACCGACCGA, SEQ ID NO: 75 (listed as DNA, chemistry not fully specified)” the same measures were 2365, 933 and 10266.
For “POLR1D_+_28196016.23-P1_07: sgRNA targeting POLR1D, GGGAAGCAAGGAGCGACCGA, SEQ ID NO: 77 (listed as DNA, chemistry not fully specified)”, in that order: 16283, 16285 and 15589.
For “POLR1D_+_28196016.23-P1_08: sgRNA targeting POLR1D, GGGAAGCAGGGACCGACCGA, SEQ ID NO: 74 (listed as DNA, chemistry not fully specified)”, in that order: 4205, 1986 and 16414.
On to “POLR2H_+_184081251.23-P1P2_00: sgRNA targeting POLR2H, GGGGCCACGAGAGCAGCAGA, SEQ ID NO: 28 (listed as DNA, chemistry not fully specified)”, for which the “Perturb-seq pooled growth sgRNA counts, d5” value is reported as 947; the “Perturb-seq pooled growth sgRNA counts, d10” value was 1103; the “Perturb-seq pooled growth sgRNA counts, T0” value is reported as 9498.
Turning to “POLR2H_+_184081251.23-P1P2_07: sgRNA targeting POLR2H, GGGGCCACGAGTGCAGCAGA, SEQ ID NO: 118 (listed as DNA, chemistry not fully specified)”, the “Perturb-seq pooled growth sgRNA counts, d5” value stood at 6381; the “Perturb-seq pooled growth sgRNA counts, d10” value is 8153; the “Perturb-seq pooled growth sgRNA counts, T0” value was found to be 4472.
For “POLR2H_+_184081251.23-P1P2_08: sgRNA targeting POLR2H, GGGGCCACGCGAGCAGCAGA, SEQ ID NO: 116 (listed as DNA, chemistry not fully specified)”, in that order: 3492, 3869 and 6134.
As to “POLR2H_+_184081251.23-P1P2_11: sgRNA targeting POLR2H, GGGGCCACGAGAGCAGCGGA, SEQ ID NO: 115 (listed as DNA, chemistry not fully specified)”, the “Perturb-seq pooled growth sgRNA counts, d5” value is given as 898; the “Perturb-seq pooled growth sgRNA counts, d10” value is listed as 1144; the “Perturb-seq pooled growth sgRNA counts, T0” value was determined as 5900.
For “POLR2H_+_184081251.23-P1P2_12: sgRNA targeting POLR2H, GGGGCCACGAGAGCAGGAGA, SEQ ID NO: 117 (listed as DNA, chemistry not fully specified)” the same measures were 4854, 5996 and 5334.
“RAN_+_131356438.23-P1P2_00: sgRNA targeting RAN, GGCGGTCGCTGCGCTTAGGG, SEQ ID NO: 69 (listed as DNA, chemistry not fully specified)”: the “Perturb-seq pooled growth sgRNA counts, d5” value came out at 7598; the “Perturb-seq pooled growth sgRNA counts, d10” value was 8936; the “Perturb-seq pooled growth sgRNA counts, T0” value was 5444.
For the substance “RAN_+_131356438.23-P1P2_02: sgRNA targeting RAN, GGCGGCCGCTGCGCTTAGGG, SEQ ID NO: 70 (listed as DNA, chemistry not fully specified)”, the “Perturb-seq pooled growth sgRNA counts, d5” value came to 15046; the “Perturb-seq pooled growth sgRNA counts, d10” value is 15358; the “Perturb-seq pooled growth sgRNA counts, T0” value is on record as 11853.
In the case of “RAN_+_131356438.23-P1P2_03: sgRNA targeting RAN, GGGGGTCGCTGCGCTTAGGG, SEQ ID NO: 71 (listed as DNA, chemistry not fully specified)”, the “Perturb-seq pooled growth sgRNA counts, d5” value came to 6698; the “Perturb-seq pooled growth sgRNA counts, d10” value came out at 6816; the “Perturb-seq pooled growth sgRNA counts, T0” value was 5056.
In the case of “RAN_+_131356438.23-P1P2_04: sgRNA targeting RAN, GGCGGTCGCGGCGCTTAGGG, SEQ ID NO: 72 (listed as DNA, chemistry not fully specified)”, the “Perturb-seq pooled growth sgRNA counts, d5” value was found to be 11409; the “Perturb-seq pooled growth sgRNA counts, d10” value worked out at 14870; the “Perturb-seq pooled growth sgRNA counts, T0” value was found to be 6001.
With “RAN_+_131356438.23-P1P2_12: sgRNA targeting RAN, GGCGGTCGCTGCGCTTAGGT, SEQ ID NO: 73 (listed as DNA, chemistry not fully specified)”, the “Perturb-seq pooled growth sgRNA counts, d5” value is listed as 16172; the “Perturb-seq pooled growth sgRNA counts, d10” value is 25349; the “Perturb-seq pooled growth sgRNA counts, T0” value is listed as 7627.
As to “RPL9_+_39460483.23-P1P2_00: sgRNA targeting RPL9, GGATGTTTCTGTGCTCGTGG, SEQ ID NO: 5 (listed as DNA, chemistry not fully specified)”, the “Perturb-seq pooled growth sgRNA counts, d5” value is 1141; the “Perturb-seq pooled growth sgRNA counts, d10” value turned out to be 1014; the “Perturb-seq pooled growth sgRNA counts, T0” value is recorded as 10355.
As for “RPL9_+_39460483.23-P1P2_01: sgRNA targeting RPL9, GGATGATTCTGTGCTCGTGG, SEQ ID NO: 51 (listed as DNA, chemistry not fully specified)”, the “Perturb-seq pooled growth sgRNA counts, d5” value came out at 1108; the “Perturb-seq pooled growth sgRNA counts, d10” value came out at 1238; the “Perturb-seq pooled growth sgRNA counts, T0” value stood at 4886.
For “RPL9_+_39460483.23-P1P2_04: sgRNA targeting RPL9, GGATGTTTCAGTGCTCGTGG, SEQ ID NO: 53 (listed as DNA, chemistry not fully specified)”, in that order: 3975, 4118 and 5237.
For “RPL9_+_39460483.23-P1P2_05: sgRNA targeting RPL9, GGATGTTTCGGTGCTCGTGG, SEQ ID NO: 52 (listed as DNA, chemistry not fully specified)”, in that order: 2217, 2355 and 4950.
Regarding “RPL9_+_39460483.23-P1P2_07: sgRNA targeting RPL9, GGATGTTTCTGCGCTCGTGG, SEQ ID NO: 54 (listed as DNA, chemistry not fully specified)”, the “Perturb-seq pooled growth sgRNA counts, d5” value is given as 7867; the “Perturb-seq pooled growth sgRNA counts, d10” value is listed as 9339; the “Perturb-seq pooled growth sgRNA counts, T0” value was determined as 7336.
For “RPS14_+_149829238.23-P1P2_00: sgRNA targeting RPS14, GAGGCCCGGGCGCGACAATC, SEQ ID NO: 45 (listed as DNA, chemistry not fully specified)” the same measures were 3190, 2984 and 11846.
For “RPS14_+_149829238.23-P1P2_01: sgRNA targeting RPS14, GAGACCCGGGCGCGACAATC, SEQ ID NO: 46 (listed as DNA, chemistry not fully specified)” the same measures were 1474, 1385 and 4954.
For “RPS14_+_149829238.23-P1P2_02: sgRNA targeting RPS14, GAGGCCCTGGCGCGACAATC, SEQ ID NO: 47 (listed as DNA, chemistry not fully specified)” the same measures were 5497, 5538 and 11519.
